This is an account of results in patent US20210388028A1, “GLYCOPEPTIDE DERIVATIVE COMPOUNDS AND USES THEREOF” (INSMED INCORPORATED, priority 2018, published 2021).

Series [1] concerns gram positive pathogens including S. Aureus methicillin-susceptible and resistant isolates. The series can be described thus: antibacterial activity against gram positive pathogens. It counts as cell-based.
On the set-up of series [2]: species or system Sprague Dawley rats. The conditions noted are these: rat, in vivo, inhaled or intranasal, 10 mg/kg. As to the method:
120 h single dose in vivo PK experiments of nebulized inhaled compounds were performed in healthy male Sprague Dawley rats at target body-weight doses of 10 mg/kg (RV40) or 1.5 mg/kg (TLV, RV104, RV106), using a 12-port nose-only chamber (CH Technologies, Westwood, N.J., USA) equipped with an Aerogen Aeroneb Pro mesh nebulizer. The aerosol was provided to chamber at a flow rate of 6 L/min. Lungs were collected, and drug concentrations measured by HPLC-MS/MS.
Chemical modification of the compound to include an additional moiety at R=x was accomplished to improve reduce the compound's predictive hydrophobicity.

Turning to `CCCCCCCCCCNCCN[C@@]1(C)C[C@H](O[C@H]2[C@H](Oc3c4cc5cc3Oc3ccc(cc3Cl)[C@@H](O)[C@@H](NC(=O)[C@@H](CC(C)C)NC)C(=O)N[C@@H](CC(N)=O)C(=O)N[C@H]5C(=O)N[C@H]3C(=O)N[C@H](C(=O)N[C@H](C(=O)O)c5cc(O)cc(O)c5-c5cc3ccc5O)[C@H](O)c3ccc(c(Cl)c3)O4)O[C@H](CO)[C@@H](O)[C@@H]2O)O[C@@H](C)[C@H]1O` [RV40], the antibacterial activity result in series [1] was “potent antibacterial activity”. In addition, the “half-life in lung tissue (t1/2)” value in series [2] was 12.5 days.
